Experimental data: ChEMBL document CHEMBL4387741, “Optimization of novel reversible Bruton's tyrosine kinase inhibitors identified using Tethering-fragment-based screens” (Bioorg Med Chem, 2019)

Key:
[1] = system: Tyrosine-protein kinase ABL1 (Homo sapiens), P00519 [H396P]; assay: Inhibition of human phosphorylated ABL1 H396P mutant (S229 to K512 residues) expressed in mammalian expression system at 1 uM by Kinomescan method relative to control
[2] = molecular target: Calcium/calmodulin-dependent protein kinase type II subunit gamma (Homo sapiens) (UniProt Q13555); assay: Inhibition of wild-type human partial length CAMK2G (R9 to A303 residues) expressed in bacterial expression system at 1 uM by Kinomescan method relative to control
Chain of Calcium/calmodulin-dependent protein kinase type II subunit gamma (Homo sapiens) (Q13555 whole entry, the tested form may be a part, canonical isoform): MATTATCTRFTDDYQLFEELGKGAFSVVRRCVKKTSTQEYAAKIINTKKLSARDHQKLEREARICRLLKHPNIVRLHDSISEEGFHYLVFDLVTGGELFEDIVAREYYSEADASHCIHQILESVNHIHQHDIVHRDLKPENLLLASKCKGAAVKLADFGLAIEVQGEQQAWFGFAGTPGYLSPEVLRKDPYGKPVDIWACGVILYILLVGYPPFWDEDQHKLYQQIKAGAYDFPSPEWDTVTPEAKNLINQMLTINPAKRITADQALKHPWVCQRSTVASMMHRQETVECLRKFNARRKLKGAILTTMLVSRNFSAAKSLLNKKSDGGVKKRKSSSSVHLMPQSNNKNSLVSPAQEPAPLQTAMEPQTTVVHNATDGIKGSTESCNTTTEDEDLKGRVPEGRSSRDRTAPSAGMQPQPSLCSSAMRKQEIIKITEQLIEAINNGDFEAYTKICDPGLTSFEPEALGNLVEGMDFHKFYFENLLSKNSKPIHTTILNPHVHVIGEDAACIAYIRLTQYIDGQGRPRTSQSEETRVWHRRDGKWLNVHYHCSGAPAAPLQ

[3] = molecular target: Casein kinase I isoform gamma-1 (Homo sapiens) (UniProt Q9HCP0); assay: Inhibition of wild-type human partial length CSNK1G1 (T15 to S353 residues) expressed in bacterial expression system at 1 uM by Kinomescan method relative to control
[4] = molecular target: Serine/threonine-protein kinase DCLK3 (Homo sapiens) (UniProt Q9C098); assay: Inhibition of wild-type human partial length DCAMKL3 (E140 to V628 residues) expressed in bacterial expression system at 1 uM by Kinomescan method relative to control
Chain of Serine/threonine-protein kinase DCLK3 (Homo sapiens) (Q9C098 whole entry, the tested form may be a part): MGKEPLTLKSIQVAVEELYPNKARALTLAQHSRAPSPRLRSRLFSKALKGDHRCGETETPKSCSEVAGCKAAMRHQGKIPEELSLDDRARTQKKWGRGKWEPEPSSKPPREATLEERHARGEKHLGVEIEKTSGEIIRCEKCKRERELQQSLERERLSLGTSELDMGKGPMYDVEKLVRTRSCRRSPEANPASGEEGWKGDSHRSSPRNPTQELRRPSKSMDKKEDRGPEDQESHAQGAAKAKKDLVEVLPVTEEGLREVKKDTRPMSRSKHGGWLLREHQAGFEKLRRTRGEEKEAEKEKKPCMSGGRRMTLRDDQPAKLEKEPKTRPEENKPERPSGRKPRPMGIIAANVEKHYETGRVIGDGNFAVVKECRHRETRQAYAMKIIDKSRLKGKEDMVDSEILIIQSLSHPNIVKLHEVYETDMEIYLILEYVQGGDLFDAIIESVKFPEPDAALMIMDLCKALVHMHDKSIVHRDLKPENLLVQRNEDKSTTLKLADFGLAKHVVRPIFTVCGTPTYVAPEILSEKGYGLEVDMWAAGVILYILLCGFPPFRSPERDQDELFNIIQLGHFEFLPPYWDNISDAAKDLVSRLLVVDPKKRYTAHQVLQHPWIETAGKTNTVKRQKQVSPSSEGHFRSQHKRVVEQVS

[5] = molecular target: Rhodopsin kinase GRK7 (Homo sapiens) (UniProt Q8WTQ7); assay: Inhibition of wild-type human full length GRK7 (M1 to L553 residues) expressed in mammalian expression system at 1 uM by Kinomescan method relative to control
Chain of Rhodopsin kinase GRK7 (Homo sapiens) (Q8WTQ7 whole entry, the tested form may be a part): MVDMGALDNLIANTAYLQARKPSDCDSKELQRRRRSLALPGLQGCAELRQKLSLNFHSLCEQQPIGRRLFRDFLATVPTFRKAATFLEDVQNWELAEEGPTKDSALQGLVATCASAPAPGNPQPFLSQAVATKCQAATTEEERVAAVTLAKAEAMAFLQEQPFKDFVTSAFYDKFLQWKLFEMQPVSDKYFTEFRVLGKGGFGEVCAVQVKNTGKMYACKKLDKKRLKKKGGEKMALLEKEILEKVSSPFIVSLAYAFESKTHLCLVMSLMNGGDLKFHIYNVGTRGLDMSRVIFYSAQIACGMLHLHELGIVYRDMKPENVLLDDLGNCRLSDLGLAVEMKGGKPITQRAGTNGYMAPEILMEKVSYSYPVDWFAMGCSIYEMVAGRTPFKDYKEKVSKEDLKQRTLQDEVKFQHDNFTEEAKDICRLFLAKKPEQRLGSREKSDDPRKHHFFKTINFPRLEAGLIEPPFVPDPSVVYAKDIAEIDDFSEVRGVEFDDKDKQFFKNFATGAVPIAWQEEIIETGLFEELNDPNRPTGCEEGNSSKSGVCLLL

[6] = molecular target: Homeodomain-interacting protein kinase 4 (Homo sapiens) (UniProt Q8NE63); assay: Inhibition of wild-type human partial length HIPK4 (M1 to V384 residues) expressed in bacterial expression system at 1 uM by Kinomescan method relative to control
[7] = molecular target: Serine/threonine-protein kinase MARK1 (Homo sapiens) (UniProt Q9P0L2); assay: Inhibition of wild-type human partial length MARK1 (Q30 to T341 residues) expressed in bacterial expression system at 1 uM by Kinomescan method relative to control
[8] = molecular target: MAP/microtubule affinity-regulating kinase 3 (Homo sapiens) (UniProt P27448); assay: Inhibition of wild-type human full length MARK3 (M1 to L729 residues) expressed in bacterial expression system at 1 uM by Kinomescan method relative to control
[9] = molecular target: cGMP-dependent protein kinase 2 (Homo sapiens) (UniProt Q13237); assay: Inhibition of wild-type human partial length PRKG2 (S422 to F762 residues) expressed in mammalian expression system at 1 uM by Kinomescan method relative to control
[10] = molecular target: SNF-related serine/threonine-protein kinase (Homo sapiens) (UniProt Q9NRH2); assay: Inhibition of wild-type human partial length SNRK (M1 to E339 residues) expressed in mammalian expression system at 1 uM by Kinomescan method relative to control
[11] = molecular target: Serine/threonine-protein kinase 33 (Homo sapiens) (UniProt Q9BYT3); assay: Inhibition of wild-type human full length STK33 (M1 to L514 residues) expressed in bacterial expression system at 1 uM by Kinomescan method relative to control
Chain of Serine/threonine-protein kinase 33 (Homo sapiens) (Q9BYT3 whole entry, looked up, the tested form may be a part): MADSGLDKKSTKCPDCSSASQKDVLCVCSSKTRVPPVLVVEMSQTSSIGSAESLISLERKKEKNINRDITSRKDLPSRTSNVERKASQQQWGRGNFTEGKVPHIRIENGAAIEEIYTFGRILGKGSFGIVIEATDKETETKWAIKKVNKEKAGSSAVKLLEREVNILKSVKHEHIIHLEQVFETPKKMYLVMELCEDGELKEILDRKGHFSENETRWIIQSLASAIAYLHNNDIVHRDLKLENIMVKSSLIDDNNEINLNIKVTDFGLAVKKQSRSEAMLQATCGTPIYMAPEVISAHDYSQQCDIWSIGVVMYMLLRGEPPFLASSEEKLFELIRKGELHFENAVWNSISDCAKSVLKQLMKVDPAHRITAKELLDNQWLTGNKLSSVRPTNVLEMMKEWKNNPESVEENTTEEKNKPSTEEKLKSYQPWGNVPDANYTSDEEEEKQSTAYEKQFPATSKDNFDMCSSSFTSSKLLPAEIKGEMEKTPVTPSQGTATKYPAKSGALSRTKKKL

[12] = molecular target: Serine/threonine-protein kinase WNK2 (Homo sapiens) (UniProt Q9Y3S1); assay: Inhibition of wild-type human partial length WNK2 (V47 to D482 residues) expressed in mammalian expression system at 1 uM by Kinomescan method relative to control
[13] = molecular target: Mitogen-activated protein kinase kinase kinase 12 (Homo sapiens) (UniProt Q12852); assay: Inhibition of wild-type human full length DLK (M1 to P859 residues) expressed in mammalian expression system at 1 uM by Kinomescan method relative to control
Chain of Mitogen-activated protein kinase kinase kinase 12 (Homo sapiens) (Q12852 whole entry, looked up, the tested form may be a part): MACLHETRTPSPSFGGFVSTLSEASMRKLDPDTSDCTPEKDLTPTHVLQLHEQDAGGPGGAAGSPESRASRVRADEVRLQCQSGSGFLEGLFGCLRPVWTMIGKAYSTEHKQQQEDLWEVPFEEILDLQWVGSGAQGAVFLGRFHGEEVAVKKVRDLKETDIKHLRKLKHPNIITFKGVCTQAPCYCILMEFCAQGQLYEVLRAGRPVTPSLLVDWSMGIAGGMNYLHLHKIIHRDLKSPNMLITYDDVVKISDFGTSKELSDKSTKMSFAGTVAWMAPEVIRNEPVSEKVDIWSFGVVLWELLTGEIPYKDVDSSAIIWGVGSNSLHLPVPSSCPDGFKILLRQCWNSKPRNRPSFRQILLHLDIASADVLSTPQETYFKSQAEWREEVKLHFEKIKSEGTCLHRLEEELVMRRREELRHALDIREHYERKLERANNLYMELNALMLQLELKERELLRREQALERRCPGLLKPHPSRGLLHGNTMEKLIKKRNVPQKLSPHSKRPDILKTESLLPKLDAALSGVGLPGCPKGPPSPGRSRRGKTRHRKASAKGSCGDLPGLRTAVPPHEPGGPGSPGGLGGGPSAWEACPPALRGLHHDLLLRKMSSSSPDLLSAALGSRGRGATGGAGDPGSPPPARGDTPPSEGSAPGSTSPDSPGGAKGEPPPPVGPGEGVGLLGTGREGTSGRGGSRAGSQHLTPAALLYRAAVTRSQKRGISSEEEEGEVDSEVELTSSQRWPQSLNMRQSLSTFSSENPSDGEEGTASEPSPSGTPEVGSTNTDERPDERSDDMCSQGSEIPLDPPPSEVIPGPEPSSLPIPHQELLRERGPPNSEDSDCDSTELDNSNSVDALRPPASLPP

[14] = system: Epidermal growth factor receptor (Homo sapiens), P00533 [UNDEFINED MUTATION]; assay: Inhibition of human partial length EGFR L747-E749del/A750P mutant expressed in bacterial expression system at 10 uM by Kinomescan method relative to control
[15] = molecular target: Fibroblast growth factor receptor 3 (Homo sapiens) (UniProt P22607); assay: Inhibition of wild-type human partial length FGFR3 (R442 to S771 residues) expressed in bacterial expression system at 10 uM by Kinomescan method relative to control
Chain of Fibroblast growth factor receptor 3 (Homo sapiens) (P22607 23-806 limits assumed): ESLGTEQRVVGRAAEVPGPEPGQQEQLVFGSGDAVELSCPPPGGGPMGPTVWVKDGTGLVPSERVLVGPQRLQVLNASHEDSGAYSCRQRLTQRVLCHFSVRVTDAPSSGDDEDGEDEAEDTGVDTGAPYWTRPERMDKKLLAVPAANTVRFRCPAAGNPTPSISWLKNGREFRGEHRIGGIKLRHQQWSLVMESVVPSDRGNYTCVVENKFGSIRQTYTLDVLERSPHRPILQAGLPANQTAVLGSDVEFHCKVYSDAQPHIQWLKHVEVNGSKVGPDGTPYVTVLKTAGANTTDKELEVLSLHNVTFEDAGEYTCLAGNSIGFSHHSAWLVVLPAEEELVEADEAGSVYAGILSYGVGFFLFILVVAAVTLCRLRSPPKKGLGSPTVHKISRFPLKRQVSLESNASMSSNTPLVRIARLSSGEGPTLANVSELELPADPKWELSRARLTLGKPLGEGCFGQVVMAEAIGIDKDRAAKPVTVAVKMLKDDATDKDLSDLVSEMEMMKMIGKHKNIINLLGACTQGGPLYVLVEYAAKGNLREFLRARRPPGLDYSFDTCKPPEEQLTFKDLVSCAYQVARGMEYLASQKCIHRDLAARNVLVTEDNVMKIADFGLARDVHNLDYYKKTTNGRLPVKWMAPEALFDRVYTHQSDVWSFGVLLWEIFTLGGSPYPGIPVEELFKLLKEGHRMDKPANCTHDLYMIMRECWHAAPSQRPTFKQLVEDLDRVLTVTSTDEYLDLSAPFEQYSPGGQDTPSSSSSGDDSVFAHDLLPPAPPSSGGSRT

[16] = molecular target: LIM domain kinase 2 (Homo sapiens) (UniProt P53671); assay: Inhibition of wild-type human full length LIMK2 (M1 to P638 residues) expressed in bacterial expression system at 10 uM by Kinomescan method relative to control
[17] = molecular target: Mitogen-activated protein kinase kinase kinase 11 (Homo sapiens) (UniProt Q16584); assay: Inhibition of wild-type human partial length MLK3 (I77 to W399 residues) expressed in bacterial expression system at 10 uM by Kinomescan method relative to control
[18] = molecular target: Serine/threonine-protein kinase NLK (Homo sapiens) (UniProt Q9UBE8); assay: Inhibition of wild-type human full length NLK (M13 to E527 residues) expressed in bacterial expression system at 10 uM by Kinomescan method relative to control
[19] = molecular target: Cyclin-dependent kinase 17 (Homo sapiens) (UniProt Q00537); assay: Inhibition of wild-type human full length PCTK2 (M1 to F523 residues) expressed in bacterial expression system at 10 uM by Kinomescan method relative to control
Chain of Cyclin-dependent kinase 17 (Homo sapiens) (Q00537 whole entry, looked up, the tested form may be a part): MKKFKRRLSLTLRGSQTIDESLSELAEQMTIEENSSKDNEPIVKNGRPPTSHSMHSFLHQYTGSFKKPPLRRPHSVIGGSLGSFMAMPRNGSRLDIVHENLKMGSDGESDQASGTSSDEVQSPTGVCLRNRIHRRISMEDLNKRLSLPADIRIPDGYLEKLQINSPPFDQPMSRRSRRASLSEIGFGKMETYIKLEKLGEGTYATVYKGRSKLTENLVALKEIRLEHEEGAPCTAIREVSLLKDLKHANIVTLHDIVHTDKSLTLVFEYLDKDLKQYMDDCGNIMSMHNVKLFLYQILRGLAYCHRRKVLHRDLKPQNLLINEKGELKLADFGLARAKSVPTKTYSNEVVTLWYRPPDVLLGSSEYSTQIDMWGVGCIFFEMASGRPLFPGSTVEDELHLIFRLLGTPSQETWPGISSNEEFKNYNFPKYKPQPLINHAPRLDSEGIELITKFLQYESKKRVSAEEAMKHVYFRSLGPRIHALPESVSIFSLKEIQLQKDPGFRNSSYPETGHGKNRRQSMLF

[20] = molecular target: Cyclin-dependent kinase 2 homolog (Plasmodium falciparum (isolate 3D7)) (UniProt P61075); assay: Inhibition of wild-type Plasmodium falciparum full length PK5 (M1 to N288 residues) expressed in mammalian expression system at 10 uM by Kinomescan method relative to control
[21] = molecular target: Phosphatidylinositol 4,5-bisphosphate 3-kinase catalytic subunit gamma isoform (Homo sapiens) (UniProt P48736); assay: Inhibition of wild-type human partial length PIK3CG (S144 to A1102 residues) expressed in mammalian expression system at 10 uM by Kinomescan method relative to control
[22] = molecular target: Serine/threonine-protein kinase PLK2 (Homo sapiens) (UniProt Q9NYY3); assay: Inhibition of wild-type human partial length PLK2 (H58 to F354 residues) expressed in mammalian expression system at 10 uM by Kinomescan method relative to control
[23] = molecular target: Ribosomal protein S6 kinase alpha-4 (Homo sapiens) (UniProt O75676); assay: Inhibition of wild-type human partial length C-terminal RPS6KA4 kinase domain 2 (M375 to T705 residues) expressed in mammalian expression system at 10 uM by Kinomescan method relative to control
[24] = molecular target: Ribosomal protein S6 kinase alpha-1 (Homo sapiens) (UniProt Q15418); assay: Inhibition of wild-type human partial length N-terminal RSK1 Kinase domain 1 (M1 to E388 residues) expressed in bacterial expression system at 10 uM by Kinomescan method relative to control
[25] = molecular target: Serine/threonine-protein kinase VRK2 (Homo sapiens) (UniProt Q86Y07); assay: Inhibition of wild-type human partial length VRK2 (M1 to T336 residues) expressed in mammalian expression system at 10 uM by Kinomescan method relative to control
Chain of Serine/threonine-protein kinase VRK2 (Homo sapiens) (Q86Y07 whole entry, the tested form may be a part): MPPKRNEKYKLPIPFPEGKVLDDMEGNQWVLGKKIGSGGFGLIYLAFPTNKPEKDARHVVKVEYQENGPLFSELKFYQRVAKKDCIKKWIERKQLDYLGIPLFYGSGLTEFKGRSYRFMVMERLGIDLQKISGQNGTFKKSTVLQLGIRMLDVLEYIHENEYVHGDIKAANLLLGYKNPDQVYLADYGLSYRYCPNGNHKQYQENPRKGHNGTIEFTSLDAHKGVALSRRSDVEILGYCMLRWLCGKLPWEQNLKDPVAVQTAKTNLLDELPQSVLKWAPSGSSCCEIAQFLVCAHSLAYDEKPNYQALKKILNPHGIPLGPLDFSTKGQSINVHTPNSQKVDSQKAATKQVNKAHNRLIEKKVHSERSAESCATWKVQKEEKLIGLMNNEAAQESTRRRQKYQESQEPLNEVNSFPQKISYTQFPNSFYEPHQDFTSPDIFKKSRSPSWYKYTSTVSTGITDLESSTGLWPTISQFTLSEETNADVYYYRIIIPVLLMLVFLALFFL

[26] = molecular target: Mitogen-activated protein kinase kinase kinase 12 (Homo sapiens) (UniProt Q12852); assay: Inhibition of wild-type human full length DLK (M1 to P859 residues) expressed in mammalian expression system at 10 uM by Kinomescan method relative to control

O=C(Nc1cccc([C@@H]2CN(c3ncnc4[nH]ccc34)CCN2CCO)c1)Nc1c(F)cccc1N1CCCC1
inhibition [1]: 71%
inhibition [2]: 99%
inhibition [3]: 100%
inhibition [4]: 85%
inhibition [5]: 99%
inhibition [6]: 96%
inhibition [7]: 97%
inhibition [8]: 100%
inhibition [9]: 100%
inhibition [10]: 88%
inhibition [11]: 55%
inhibition [12]: 99%
inhibition [13]: 79%

O=C(Nc1cccc([C@H]2CCCN(c3ncnc4[nH]ccc34)C2)c1)Nc1ccccc1N1CCCC1
inhibition [14]: 82%
inhibition [15]: 46%
inhibition [16]: 100%
inhibition [17]: 85%
inhibition [18]: 96%
inhibition [19]: 97%
inhibition [20]: 93%
inhibition [21]: 75%
inhibition [22]: 78%
inhibition [23]: 44%
inhibition [24]: 42%
inhibition [25]: 93%
inhibition [26]: 69%
